Laboratory results reported in ChEMBL document CHEMBL4390708, “Design, synthesis, in-silico studies and biological screening of quinazolinone analogues as potential antibacterial agents against MRSA” (2019).
≈ marks a conversion by molar mass, not a printed value.

Legend:
Format in all cases: functional
Escherichia coli = assay: Antibacterial activity against Escherichia coli assessed as reduction in bacterial cell viability incubated for 20 to 24 hrs by REMA method
Staphylococcus aureus [1] = assay: Antibacterial activity against Staphylococcus aureus assessed as reduction in bacterial cell viability incubated for 20 to 24 hrs by REMA method
Staphylococcus aureus [2] = assay: Antibacterial activity against methicillin-resistant Staphylococcus aureus assessed as reduction in bacterial cell viability incubated for 20 to 24 hrs by REMA method

| SMILES | MIC (Escherichia coli) [µg/mL] | MIC (Staphylococcus aureus [1]) [µg/mL] | MIC (Staphylococcus aureus [2]) [µg/mL] |
| --- | --- | --- | --- |
| O=C(Nc1cccc(-n2c(/C=C/c3ccc(F)cc3)nc3ccccc3c2=O)c1)c1cccs1 | 62.5 (≈ 134 µM) | 31.2 (≈ 66.8 µM) | 31.2 (≈ 66.8 µM) |
| Cc1ccccc1C(=O)Nc1cccc(-n2c(/C=C/c3ccc(C#N)cc3)nc3ccccc3c2=O)c1 | 62.5 (≈ 130 µM) | 62.5 (≈ 130 µM) | 62.5 (≈ 130 µM) |
| COc1ccc(C(=O)Nc2cccc(-n3c(/C=C/c4ccc(F)cc4)nc4ccccc4c3=O)c2)cc1OC | 62.5 (≈ 120 µM) | 62.5 (≈ 120 µM) | 62.5 (≈ 120 µM) |
| O=C(Nc1cccc(-n2c(/C=C/c3ccc(F)cc3)nc3ccccc3c2=O)c1)c1ccccc1 | 62.5 (≈ 135 µM) | 125 (≈ 271 µM) | 62.5 (≈ 135 µM) |
| COc1ccc(CC(=O)Nc2cccc(-n3c(/C=C/c4ccc(Cl)cc4)nc4ccccc4c3=O)c2)cc1 | 62.5 (≈ 120 µM) | 15.6 (≈ 29.9 µM) | 31.2 (≈ 59.9 µM) |
| N#Cc1ccc(/C=C/c2nc3ccccc3c(=O)n2-c2cccc(NC(=O)c3ccccc3)c2)cc1 | 62.5 (≈ 133 µM) | 62.5 (≈ 133 µM) | 62.5 (≈ 133 µM) |
| Cc1ccccc1C(=O)Nc1cccc(-n2c(/C=C/c3ccc(F)cc3)nc3ccccc3c2=O)c1 | 62.5 (≈ 131 µM) | 125 (≈ 263 µM) | 62.5 (≈ 131 µM) |
| COc1ccc(CC(=O)Nc2cccc(-n3c(/C=C/c4ccc(F)cc4)nc4ccccc4c3=O)c2)cc1 | 62.5 (≈ 124 µM) | 62.5 (≈ 124 µM) | 62.5 (≈ 124 µM) |
| N#Cc1ccc(/C=C/c2nc3ccccc3c(=O)n2-c2cccc(NC(=O)c3cccs3)c2)cc1 | 62.5 (≈ 132 µM) | 62.5 (≈ 132 µM) | 62.5 (≈ 132 µM) |
| COc1ccc(C(=O)Nc2cccc(-n3c(/C=C/c4ccc(Cl)cc4)nc4ccccc4c3=O)c2)cc1OC | 62.5 (≈ 116 µM) | 62.5 (≈ 116 µM) | 62.5 (≈ 116 µM) |
| NC[C@H]1O[C@H](O[C@H]2[C@H](O)[C@@H](O[C@H]3O[C@H](CO)[C@@H](O)[C@H](N)[C@H]3O)[C@H](N)C[C@@H]2N)[C@H](O)[C@@H](O)[C@@H]1O [KANAMYCIN] | 7.8 (≈ 16.1 µM) | 7.8 (≈ 16.1 µM) | – |
| CC(=O)NC[C@H]1CN(c2ccc(N3CCOCC3)c(F)c2)C(=O)O1 [LINEZOLID] | – | – | 7.8 (≈ 23.1 µM) |
| CN[C@@H]1[C@H](O[C@H]2[C@H](O[C@H]3[C@H](O)[C@@H](O)[C@H](N=C(N)N)[C@@H](O)[C@@H]3N=C(N)N)O[C@@H](C)[C@]2(O)C=O)O[C@@H](CO)[C@H](O)[C@H]1O [STREPTOMYCIN] | 7.8 (≈ 13.4 µM) | 7.8 (≈ 13.4 µM) | – |
